For data set [1], the system named is Human melanocytes. The data set can be described thus: Cell viability of treated melanocytes (CCK-8). The note with it: IBMX 100 μM alone, control = 100. The class given is cell-based. On the procedure:
(§1) Day 1—Human melanocytes are rise by trypsinization and centrifuge at 1500 rpm (433×g) in an Allegra X-22R (Beckman Coulter) centrifuge during 5 minutes, and then are resuspended in 1 ml of a complete culture medium to count the number of cells. A volume of 10 μl of the cells solution was dyed with Trypan Blue colorant and the cells are counted with a hemocytometer. Then a cell solution is prepared at a concentration of 2.5×10^5 cells/ml in a complete medium and 100 μl of the cell suspension is seed in wells of 96 well plates. The plates are incubated at 37° C. in a 5% CO2 atmosphere.
Day 2—The seed cells are washed and treated with the different products in basal conditions and promelanogenic conditions. […]
The products are tested at 3 different concentrations in the presence and absence of the melanogenic inductor (100 μM), i.e. isobutyl methyl-xantine (IBMX). […] The melanin accumulation inside the cells is monitored daily by optical microscopy. […]
Day 5—Determination of cell viability: In order to determine de number of viable cells, 10 μl of CCK-8 (WST-8) is added in each well. The plates are incubated at 37° C. during 1 hour and the absorbance is measured at 450 nm using Synergy II multimode (Biotek Instruments Inc., Winooski, Estados Unidos). The mode and SD is calculated for each concentration using Microsoft Excel application (see FIG. 2 and table 2)

Data set [2] relates to Human melanocytes. The data set can be described thus: Melanin determination in treated melanocytes. The class given is cell-based. The note with it: for % MELANINE CONTENT: determined as in examples 4 and 5, concentration not given. On the procedure:
as §1
Day 2—The seed cells are washed and treated with the different products in basal conditions and promelanogenic conditions. For that, the medium is removed of wells and 100 μl of the products in basal medium with 0.5% of FBS is added. Previously, the test products are solubilised in the same medium. Arbutin is solubilised in ethanol.
The products are tested at 3 different concentrations in the presence and absence of the melanogenic inductor (100 μM), i.e. isobutyl methyl-xantine (IBMX). The plates are incubated 37° C. and 5% CO2 during 5 days. The experiments are carried out using 4 wells per condition. The melanin accumulation inside the cells is monitored daily by optical microscopy.
Days 3 and 4—All treatments are renewed every 24 hours.
In order to determine the melanin content in cells treated as described in example 4, the medium is removed from each well and cells are washed with PBS 1N and incubated during 3 days at 37° C. facilitating the solubilisation of the melanin in NaOH.
Day 7—Once the solubilisation of melanin is complete, 50 μl de H2O2 MilliQ is added per well and the content is determined by absorbance using a Synergy II (Biotek Instruments Inc., Winooski, USA) at 390 nm. The mode and SD is calculated for each
The activity of several peptides of formula (II) (listed in table 3 below) to reduce melanine was determined as explained in example 5 after treating the cells as explained in example 4.

For a further data set, the system named is cultured cells. The note with it: cited from earlier work.
A further data set relates to facial hyperpigmentation. The note with it: clinical studies; cited from earlier work.
Another data set has as its system human keratinocytes. The data set can be described thus: Cytotoxicity assay (MTT). The class given is cell-based. To be noted: positive control 0.1% SDS, 48 h. On the procedure: (§2) Human dermal fibroblasts and human keratinocytes were used. The isolated cells were cultured in DMEM culture medium supplemented with 10% FCS and were incubated at 37° C. for maintenance treatment. Untreated cells were used as negative control. The positive control was 0.1% SDS. The microcapsules as obtained in Example 1 were tested in the DMEM culture medium at two concentrations: 0.03% and 0.3%. These weight percentages refer to the weight of the microcapsule in relation to the total weight.
(§3) Cells were seeded at 20000 cells per well in a 96-well plate. 24 hours after seeding, cells were incubated under the conditions described above. After 48 h of incubation at 37° C., the culture medium was removed and the MTT reagent was added. Cells were incubated 2 hours at 37° C. DMSO was then added and the absorbance of the formed formazan salt was measured at A 570 nm. Lower absorbance values correspond to cells with lower metabolic activity, which correlates with an increased damage and, therefore, with an increased cytotoxic effect. Thus, the amount of living cells is proportional to the amount of formazan produced.

In the next data set the test system is Human dermal fibroblasts. Kind of data set: Cytotoxicity assay (MTT). The class given is cell-based. The note with it: positive control 0.1% SDS, 48 h. On the procedure: as §2, §3
A further data set deals with cultured melanocytes. The note with it: cited from earlier work.

In the case of `CC(C)Cn1c(=O)n(C)c(=O)c2[nH]cnc21` [Isobutyl methyl-xantine (IBMX), Isobutyl methyl-xantine, reference compound], in the data set on Human melanocytes [1], the Cell viability was 90%. The “Melanin content (%)” value in the data set with Human melanocytes [2] (IBMX 100 μM alone, control = 100) is 174 ± 12%.

For `NC(=O)c1cccnc1` [Niacinamide], the melanosome transfer entry in the data set with cultured cells is reported as “inhibit melanosome transfer in cultured cells”. The “appearance of hyperpigmented spots” value with facial hyperpigmentation is on record as “reduce the appearance of hyperpigmented spots”.

Consider `CCCCCCCCCCCCOS(=O)(=O)[O-].[Na+]` [SDS], for which the “% cell viability” value is 13.0% in the data set with human keratinocytes and 30.0% in the data set on Human dermal fibroblasts.

In the case of `C=CCCCCCCCCC(=O)N[C@@H](Cc1ccccc1)C(=O)O` [Sepiwhite, N-undecyl-10-enoyl-L-phenylalanine], the melanin production entry in the data set on cultured melanocytes is given as “reduces melanin production in cultured melanocytes”.

Take “Ac-Ile-Ser-(d)Leu-Leu-Asp-(d)Ala-Gln-Ser-NH2 (ISLLDAQS; HELM PEPTIDE1{[ac].I.S.[dL].L.D.[dA].Q.S.[am]}$$$$V2.0; SMILES CC[C@H](C)[C@H](NC(C)=O)C(=O)N[C@@H](CO)C(=O)N[C@H](CC(C)C)C(=O)N[C@@H](CC(C)C)C(=O)N[C@@H](CC(=O)O)C(=O)N[C@H](C)C(=O)N[C@@H](CCC(N)=O)C(=O)N[C@@H](CO)C(N)=O) [peptide of formula (II)]”: the “% MELANINE CONTENT” value in the data set on Human melanocytes [2] is on record as 68%.

Regarding “Ac-Ile-Ser-Leu-Leu-Asp-(d)Ala-Gln-Ser-NH2 (ISLLDAQS; HELM PEPTIDE1{[ac].I.S.L.L.D.[dA].Q.S.[am]}$$$$V2.0; SMILES CC[C@H](C)[C@H](NC(C)=O)C(=O)N[C@@H](CO)C(=O)N[C@@H](CC(C)C)C(=O)N[C@@H](CC(C)C)C(=O)N[C@@H](CC(=O)O)C(=O)N[C@H](C)C(=O)N[C@@H](CCC(N)=O)C(=O)N[C@@H](CO)C(N)=O) [peptide of formula (II)]”, the “% MELANINE CONTENT” value in the data set on Human melanocytes [2] was found to be 80%.

Turning to “Ac-Ile-Ser-Leu-Leu-Asp-Ala-Gln-Ser-NH2 (Ac-ISLLDAQS-NH2) [peptide of formula (II)]”, the “% MELANINE CONTENT” value with Human melanocytes [2] was found to be 87%.

Consider “Palm-Ile-Ser-(d)Leu-Leu-Asp-(d)Ala-Gln-Ser-NH2 (ISLLDAQS; HELM PEPTIDE1{[CCCCCCCCCCCCCCCC(=O)[*:2]].I.S.[dL].L.D.[dA].Q.S.[am]}$$$$V2.0; SMILES CCCCCCCCCCCCCCCC(=O)N[C@H](C(=O)N[C@@H](CO)C(=O)N[C@H](CC(C)C)C(=O)N[C@@H](CC(C)C)C(=O)N[C@@H](CC(=O)O)C(=O)N[C@H](C)C(=O)N[C@@H](CCC(N)=O)C(=O)N[C@@H](CO)C(N)=O)[C@@H](C)CC) [peptide of formula (II)]”, for which the “% MELANINE CONTENT” value with Human melanocytes [2] is 65%.

On to “Palm-Ile-Ser-Leu-Leu-Asp-(d)Ala-Gln-Ser-NH2 (ISLLDAQS; HELM PEPTIDE1{[CCCCCCCCCCCCCCCC(=O)[*:2]].I.S.L.L.D.[dA].Q.S.[am]}$$$$V2.0; SMILES CCCCCCCCCCCCCCCC(=O)N[C@H](C(=O)N[C@@H](CO)C(=O)N[C@@H](CC(C)C)C(=O)N[C@@H](CC(C)C)C(=O)N[C@@H](CC(=O)O)C(=O)N[C@H](C)C(=O)N[C@@H](CCC(N)=O)C(=O)N[C@@H](CO)C(N)=O)[C@@H](C)CC) [peptide of formula (II)]”, for which the “% MELANINE CONTENT” value in the data set with Human melanocytes [2] is listed as 78%.

As for “Palm-Ile-Ser-Leu-Leu-Asp-Ala-Gln-Ser-NH2 (ISLLDAQS; HELM PEPTIDE1{[CCCCCCCCCCCCCCCC(=O)[*:2]].I.S.L.L.D.A.Q.S.[am]}$$$$V2.0; SMILES CCCCCCCCCCCCCCCC(=O)N[C@H](C(=O)N[C@@H](CO)C(=O)N[C@@H](CC(C)C)C(=O)N[C@@H](CC(C)C)C(=O)N[C@@H](CC(=O)O)C(=O)N[C@@H](C)C(=O)N[C@@H](CCC(N)=O)C(=O)N[C@@H](CO)C(N)=O)[C@@H](C)CC) [peptide of formula (II)]”, the “% MELANINE CONTENT” value in the data set with Human melanocytes [2] is listed as 85%.

The values above are taken from patent US20160250128A1, “TARGETED CAPSULES FOR THE DELIVERY OF SKIN WHITENING AGENTS IN THE SKIN” (INFINITEC ACTIVOS, S.L., priority 2013, published 2016).
